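Step 1: Grow cells in 96-well plates. Step 2: Expose to compound for 48 hours at 5 concentrations. Step 3: Interpolate endpoints linearly; if unreached, use highest concentration. GI50 marks 50% less growth.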 The source made the active and inactive calls. No stated cut-off is given here; in the data, active = GI50 up to about 1.1 µM and inactive = higher.
Assays:
Test in all cases: NCI anticancer screen, dose series, 48 h
CCRF-CEM = tested on: CCRF-CEM
HCT-116 = tested on: HCT-116
HCT-15 = tested on: HCT-15
HL-60 = tested on: HL-60
HOP-92 = tested on: HOP-92
KM12 = tested on: KM12
MDA-MB-231 = tested on: MDA-MB-231
MOLT-4 = tested on: MOLT-4
NCI-H522 = tested on: NCI-H522
OVCAR-3 = tested on: OVCAR-3
OVCAR-5 = tested on: OVCAR-5
PC-3 = tested on: PC-3
RXF 393 = tested on: RXF 393
SF-539 = tested on: SF-539
SK-MEL-28 = tested on: SK-MEL-28
SN12C = tested on: SN12C
SNB-19 = tested on: SNB-19
SR = tested on: SR
TK-10 = tested on: TK-10
U-251 = tested on: U-251

Row | SMILES | GI50 (CCRF-CEM) | GI50 (HCT-116) | GI50 (HCT-15) [µM] | GI50 (HL-60) | GI50 (HOP-92) | GI50 (KM12) | GI50 (MDA-MB-231) | GI50 (MOLT-4) | GI50 (NCI-H522) | GI50 (OVCAR-3) | GI50 (OVCAR-5) | GI50 (PC-3) | GI50 (RXF 393) | GI50 (SF-539) | GI50 (SK-MEL-28) | GI50 (SN12C) | GI50 (SNB-19) | GI50 (SR) | GI50 (TK-10) | GI50 (U-251)
1 | COc1ccc(C2SC(=N)Nc3c2c(C)nn3C(=O)c2ccncc2)cc1OC (stereo not given) | > 10 µM (inactive) | > 10 µM (inactive) | > 10 | > 10 µM (inactive) | > 10 µM (inactive) | > 10 µM (inactive) | > 10 µM (inactive) | > 10 µM (inactive) | > 10 µM (inactive) | > 10 µM (inactive) | > 10 µM (inactive) | > 10 µM (inactive) | > 10 µM (inactive) | > 10 µM (inactive) | > 10 µM (inactive) | > 10 µM (inactive) | > 10 µM (inactive) | > 10 µM (inactive) | > 10 µM (inactive) | > 10 µM (inactive)
2 | CN1CCN(C(=O)CCNC(=O)Cc2ccc(C(=O)c3ccccc3)cc2)CC1 | 94.8 µM (inactive) | > 100 µM (inactive) | > 100 | 58.3 µM (inactive) | > 100 µM (inactive) | 48.6 µM (inactive) | > 100 µM (inactive) | > 100 µM (inactive) | > 100 µM (inactive) | > 100 µM (inactive) | > 100 µM (inactive) | > 100 µM (inactive) | > 100 µM (inactive) | > 100 µM (inactive) | > 100 µM (inactive) | > 100 µM (inactive) | > 100 µM (inactive) | > 100 µM (inactive) | > 100 µM (inactive) | > 100 µM (inactive)
3 | CCCNC(=S)N/N=C(\C)c1ccc(S(=O)(=O)N(C)c2ccccc2)cc1 | > 31.6 µM (inactive) | > 100 µM (inactive) | > 88.5 | > 100 µM (inactive) | 20.4 µM (inactive) | > 100 µM (inactive) | 27.9 µM (inactive) | > 100 µM (inactive) | > 100 µM (inactive) | > 59.2 µM (inactive) | > 67.6 µM (inactive) | > 100 µM (inactive) | 15.3 µM (inactive) | 5.25 µM (inactive) | > 100 µM (inactive) | > 100 µM (inactive) | 39.4 µM (inactive) | 49.5 µM (inactive) | 25.5 µM (inactive) | 19.7 µM (inactive)
